Experimental data from patent US20100099613A1, “PEPTIDES FOR INDUCING A CTL AND/OR HTL RESPONSE TO HEPATITIS C VIRUS” (GENIMMUNE, priority 2004, published 2010).
Where a SMILES comes first, the peptide text is derived from it.

Columns and labels:
Balb/c (H2^bxd) mice = assay: Activity of HTL epitopes, ELISPOT of CD4+ cells, pooled samples; assay type: in vivo, mouse; conditions: Table 27, 2 experiments
Description: (§1) The experiments to test the immunogenicity of HLA-DR peptides differs slightly from example 6 in that complete Freund's is used as the adjuvant. Peptides are tested in either DRB1*0401-Tg mice or surrogate mice such as Balb/c and CBA. In this particular example, HLA-restricted peptide responses are analyzed in pooled samples.

[1] = system: DRB1*0401-Tg mice (DR4 Tg); assay: as above; assay type: in vivo, mouse; conditions: Table 26, 2 experiments
Description: as §1

SMILES	Immunized SFC/10^6 ± St Error (Balb/c (H2^bxd) mice) [SFC/10^6]	Immunized SFC/10^6 ± St Error [1] [SFC/10^6]
CC[C@H](C)[C@H](NC(=O)CNC(=O)[C@@H](NC(=O)[C@H](C)N)C(C)C)C(=O)N[C@@H](Cc1ccccc1)C(=O)N[C@@H](CCCNC(=N)N)C(=O)N[C@@H](C)C(=O)N[C@@H](C)C(=O)N[C@H](C(=O)N[C@@H](CS)C(=O)N[C@H](C(=O)N[C@@H](CCCNC(=N)N)C(=O)NCC(=O)N[C@H](C(=O)N[C@@H](C)C(=O)O)C(C)C)[C@@H](C)O)C(C)C	1330.4 ± 111.9	
CC(C)C[C@H](NC(=O)[C@@H](NC(=O)[C@@H](NC(=O)[C@@H](N)CC(C)C)C(C)C)C(C)C)C(=O)N[C@@H](C)C(=O)N[C@H](C(=O)N[C@@H](C)C(=O)N[C@H](C(=O)N1CCC[C@H]1C(=O)N1CCC[C@H]1C(=O)NCC(=O)N[C@@H](CO)C(=O)N[C@H](C(=O)N[C@H](C(=O)N[C@H](C(=O)O)C(C)C)[C@@H](C)O)C(C)C)[C@@H](C)O)[C@@H](C)O (H-LVVLATATPPGSVTV-OH; N-terminus and C-terminus assumed)		111.7 ± 42.3
